Data: article PMC7413516, “Antidepressant-like activity and safety profile evaluation of 1H-imidazo[2,1-f]purine-2,4(3H,8H)-dione derivatives as 5-HT1A receptor partial agonists” (PLoS ONE, 2020)
Where two headings read alike, the source gives them in different places.

Assay: Pharmacokinetic study in mice, plasma and brain structures, LC/MS/MS
Assay type: in vivo, Swiss albino mice
Conditions: Swiss albino, mouse, ip, 0.625 mg/kg i.p.
Method: Blood samples from the Swiss albino mice were collected at 0 (pre-dose), 5, 15, 30, 60, 120, 240 and 480 min after a compound administration. The blood samples and brain structures were collected under general anesthesia induced by i.p. injection of 50 mg/kg ketamine plus 8 mg/kg xylazine. The blood samples were taken into heparinized tubes, immediately centrifuged at 1000 × g for 10 min, and plasma was collected. The plasma samples and brain structures were immediately frozen at -30°C and -80°C, respectively.
The plasma and tissue sample pretreatment procedure involved acetonitrile precipitation. A 5 μL aliquot of the IS working solution (100 ng/mL) was added to 50 μL of the collected mouse plasma sample, which was then vortex-mixed for 10 seconds. Thereafter, 200 μL of acetonitrile was added, vortexed during 20 min, and then centrifuged (1000 × g, 10 min). The supernatant (100 μL) was then transferred to insert placed in an autosampler vial, and a 10 μL volume of this was injected onto the HPLC column. Tissue samples were thawed before use, and whole hippocampus, striatum and frontal cortex were weighted and placed in a glass mortar and pestle tissue grinder and homogenized with an appropriate amount of phosphate buffer (pH 7.4) in 1:5 ratio. Afterward, 50 μL of tissue homogenates were transferred to new Eppendorf tubes and spiked with 5 μL of the internal standard working solution. All samples were stored on ice during the preparation process. This was followed by procedures like those described above.
The LC/ESI-MS/MS experiments were performed on an Applied Biosystems/MDS Sciex (Concord, Ontario, Canada) API 2000 triple quadrupole mass spectrometer equipped with an electrospray (ESI) ionization interface. This instrument was coupled to an Agilent 1100 (Agilent Technologies, Waldbronn, Germany) LC system. Data acquisition and processing were accomplished using Sciex Analyst 1.4.2 data collection and integration software.
An XBridge C18 (2.1 x 30 mm, 3.5 μm) analytical column (Waters, Milford, Massachusetts, USA) was used for compound separation. The temperatures of the column thermostat and the autosampler were set at 25°C and 10°C, respectively. The mobile phase consisted of a mixture of acetonitrile with addition of 0.1% formic acid (solvent A) and water with addition of 0.1% formic acid (solvent B) and was set at a flow rate of 0.6 mL/min. Starting amount of solvent A is 10%, isocratic elution from 0 to 3 min, and then gradient up to 90% of solvent A, and maintained to 10 min, and then gradient down to 10% of solvent A, and maintained to 15 min.
The ion source parameters were as follows: ion spray voltage: 5500 V; nebulizer gas (gas 1): 20 psi; turbo gas (gas 2): 25 psi; temperature of the heated nebulizer: 400°C; curtain gas: 40 psi; collision gas: 6 psi. Mass spectra were acquired by SRM with precursor/predominant product ion transitions for each analyte. The mass spectral Q1→Q3 transitions monitored for AZ-853, AZ-861 and for IS (nebivolol), were m/z 453.9→235.1; 504.3→285.1 and 406.2→151.1, respectively. The peak widths of precursor and product ions were set to 0.7 full width half-height. Quantification was done via peak area ratio.
Pharmacokinetic parameters were calculated by a non-compartmental approach from the average concentration values, using Phoenix WinNonlin software (Certara, Princeton, NJ 08540 USA). First order elimination rate constant (λz) was calculated by linear regression of time versus log concentration. Next, the area under the mean serum and tissue concentration versus time curve (AUC0→t) was estimated using the log-linear trapezoidal rule (1), where Ci is the plasma concentration measured at t1.
AUC0→t=∑i=1n((Ci+Ci+1)/2)∙(ti+1−ti). (1)
Area under the first-moment curve (AUMC0→t) was estimated by calculation of the total area under the first-moment curve using the Eq (2), where Ci is the plasma concentration measured at t1. AUMC0→t=∑i=1n((ti∙Ci+ti+1∙Ci+1)/2)∙(ti+1−ti). […]

[1] = hippocampus, 0.625 mg/kg, read-out: Concentration, hippocampus (individual animals)
[2] = hippocampus, 0.625 mg/kg, read-out: Concentration, hippocampus (Mean)
[3] = plasma, 0.625 mg/kg, read-out: Concentration, plasma (Mean)
[4] = plasma, 0.625 mg/kg, read-out: Concentration, plasma (individual animals)
[5] = striatum, 0.625 mg/kg, read-out: Concentration, striatum (Mean)
[6] = striatum, 0.625 mg/kg, read-out: Concentration, striatum (individual animals)

concentration at 5 min [1]: 205 ng/mL | concentration at 15 min [2]: 271 ng/mL | concentration at 15 min [1]: 228 ng/mL | concentration at 30 min [2]: 125 ng/mL | concentration at 30 min [1]: 125 ng/mL | concentration at 60 min [2]: 44.3 ng/mL | concentration at 60 min [1]: 38.9 ng/mL | concentration at 120 min [2]: 12.6 ng/mL | concentration at 120 min [1]: 14.1 ng/mL | concentration at 240 min [2]: 8.83 ng/mL | concentration at 240 min [1]: 9.85 ng/mL | concentration at 480 min [2]: 2.07 ng/mL | Cmax (hippocampus, 0.625 mg/kg, read-out: Cmax, hippocampus): 272 ng/g | Tmax (hippocampus, 0.625 mg/kg, read-out: tmax, hippocampus (converted)): 15 min | CL/F (plasma): 570 mL/min/kg | AUC(0-t) (plasma, read-out: AUC0→t, plasma (converted)): 17.7 ng·h/mL | MRT (plasma, read-out: MRT, plasma (converted)): 85.8 min | concentration at 5 min [3]: 23.1 ng/mL | concentration at 5 min [4]: 25.4 ng/mL | concentration at 15 min [3]: 13.4 ng/mL | concentration at 15 min [4]: 12.2 ng/mL | concentration at 30 min [3]: 7.76 ng/mL | concentration at 30 min [4]: 9.11 ng/mL | concentration at 60 min [3]: 1.78 ng/mL | concentration at 120 min [3]: 4.08 ng/mL | concentration at 120 min [4]: 3.22 ng/mL | concentration at 240 min [3]: 0.38 ng/mL | concentration at 480 min [3]: 0.29 ng/mL | concentration at 480 min [4]: 0.25 ng/mL | Vd/F (plasma, 0.625 mg/kg, plasma, read-out: Vd/F): > 67 L/kg | Cmax (plasma, 0.625 mg/kg, read-out: Cmax, plasma): 23.1 ± 16 ng/mL | Tmax (plasma, 0.625 mg/kg, read-out: tmax, plasma): ≤ 5 min | Kp (striatum, ratio of AUC values, read-out: Brain structure-to-plasma concentration ratio, striatum (S/P)): 19.9 | AUC(0-t) (striatum, read-out: AUC0→t, striatum (converted)): 352 ng·h/mL | MRT (striatum, read-out: MRT, striatum (converted)): 56.3 min | concentration at 5 min [5]: 337 ng/mL | concentration at 5 min [6]: 290 ng/mL | concentration at 15 min [5]: 404 ng/mL | concentration at 15 min [6]: 398 ng/mL | concentration at 30 min [5]: 262 ng/mL | concentration at 30 min [6]: 307 ng/mL | concentration at 60 min [5]: 65.5 ng/mL | concentration at 60 min [6]: 78.3 ng/mL | concentration at 120 min [5]: 40.9 ng/mL | concentration at 120 min [6]: 48.7 ng/mL | concentration at 240 min [5]: 5.58 ng/mL | concentration at 480 min [5]: 1.4 ng/mL | Cmax (striatum, 0.625 mg/kg, read-out: Cmax, striatum): 404 ng/g | Tmax (striatum, 0.625 mg/kg, read-out: tmax, striatum (converted)): 15 min
SMILES: Cn1c(=O)c2c(nc3n(CCCCN4CCN(c5ccccc5F)CC4)ccn23)n(C)c1=O [AZ-853, 8-(4-(4-(2-fluorophenyl)piperazin-1-yl)butyl)-1,3-dimethyl-1H-imidazo[2,1-f]purine-2,4(3H,8H)-dione]
